Results published in patent US7320981B2, “Variolin derivatives as anti-cancer agents” (Pharma Mar, S.A., priority 2000, dated 2008).
Like-named read-outs stand apart in the source and are kept apart here.

Tests used:
A-549 = assay: SRB cell growth/viability assay, A-549; settings: for GI50 / CC50: Homo sapiens, A549, 48 h
Text: (§1) A colorimetric type of assay, using sulforhodamine B (SRB) reaction has been adapted for a quantitative measurement of cell growth and viability: see Skehan, P. A. et al. J. Natl. Cancer Inst., 1990, 82, 1107-1112. This form of the assay employs 96 well cell culture microplates of 9 mm diameter (Faircloth, G. T.; Stewart, D. and Clement, J. J., Journal of Tissue and Culture Methods, 1983, 11, 201-205; Mosmann, T. Journal of Immunological Methods, 1983, 65, 55-63.).
(§2) Most of the cell lines are obtained from American Type Culture Collection (ATCC) derived from different human cancer types. Cells are maintained in RPMI 1640 10% FBS, supplemented with 0.1 g/l penicillin and 0.1 g/l streptomycin sulfate and then incubated at 37° C., 5% CO2 and 98% humidity. For the experiments, cells were harvested from subconfluent cultures using trypsin and resuspended in fresh medium before plating.
(§3) Cells are seeded in 96 well microtiter plates, at 5×10^3 cells per well in aliquots of 195 μl medium, and they are allowed to attach to the plate surface by growing in drug free medium for 18 hours. Afterward, samples are in aliquots of 5 pi in a ranging from 10 to 10-8 μg/ml dissolved in DMSO/EtOH (0.2% in PS buffer). After 48 hours exposure, the antitumour effect are measured by the SRB methodology: cells are fixed by adding 50 μl of cold 50% (w/v) trichloroacetic acid (TCA) and incubating for 60 minutes at 4° C. Plates are washed with deionized water and dried. 100 μl of SRB solution (0.4% w/v in 1% acetic acid) is added to each microtiter well and incubated for 10 minutes at room temperature. Unbound SRB is removed by washing with 1% acetic acid. Plates are air-dried and bound stain is solubilized with Tris buffer. Optical densities are read on an automated spectrophotometric plate reader at a single wavelength of 490 nm.
(§4) The values for mean +/− SD of data from triplicate wells are calculated Some parameters for cellular responses can be calculated: […], TGI=total growth inhibition (cytostatic effect) and LC=cell killing (cytotoxic effect).

HT-29 = assay: SRB cell growth/viability assay, HT-29; settings: for GI50 / CC50: Homo sapiens, HT-29, 48 h
Text: as §1, §2, §3, §4

SW-620 = assay: SRB cell growth/viability assay, SW-620; settings: for GI50 / CC50: Homo sapiens, SW-620, 48 h; for GI50: read-out: GI50 (50% growth inhibition); for CC50: read-out: LC50 (50% net cell killing, cytotoxic effect)
Text: as §1, §2, §3, §4

MEL-28 = assay: SRB cell growth/viability assay, MEL-28; settings: for GI50 / CC50: Homo sapiens, SK-MEL-28, 48 h; for GI50: read-out: GI50 (50% growth inhibition); for CC50: read-out: LC50 (50% net cell killing, cytotoxic effect)
Text: as §1, §2, §3, §4

OVCAR-3 = assay: cells; assay type: cell-based; settings: for GI50 / CC50: Homo sapiens; for GI50: read-out: GI50 (50% growth inhibition); for CC50: read-out: LC50 (50% net cell killing, cytotoxic effect)
Text: Plates are washed with deionized water and dried.

A498 = assay: SRB cell growth/viability assay, A498; settings: for GI50 / CC50: Homo sapiens, A498, 48 h; for GI50: read-out: GI50 (50% growth inhibition); for CC50: read-out: LC50 (50% net cell killing, cytotoxic effect)
Text: as §1, §2, §3, §4

DU-145 = assay: SRB cell growth/viability assay, DU-145; settings: for GI50 / CC50: Homo sapiens, DU-145, 48 h; for GI50: read-out: GI50 (50% growth inhibition); for CC50: read-out: LC50 (50% net cell killing, cytotoxic effect)
Text: as §1, §2, §3, §4

MCF-7 = assay: SRB cell growth/viability assay, MCF-7; settings: for GI50 / CC50: Homo sapiens, MCF7, 48 h; for GI50: read-out: GI50 (50% growth inhibition); for CC50: read-out: LC50 (50% net cell killing, cytotoxic effect)
Text: as §1, §2, §3, §4

MB-231 = assay: SRB cell growth/viability assay, MB-231; settings: for GI50 / CC50: Homo sapiens; for GI50: read-out: GI50 (50% growth inhibition); for CC50: read-out: LC50 (50% net cell killing, cytotoxic effect)
Text: as §1, §2, §3, §4

[1] = read-out: GI50 (50% growth inhibition)
[2] = read-out: LC50 (50% net cell killing, cytotoxic effect)
[3] = Table 1, NSCL cell line A-549, 48 hours exposure, SRB
[4] = Table 1, colon cell line HT-29, 48 hours exposure, SRB
[5] = Table 1, colon cell line SW-620, 48 hours exposure, SRB
[6] = Table 1, melanoma cell line MEL-28, 48 hours exposure, SRB
[7] = Table 1, ovary cell line OVCAR-3, 48 hours exposure, SRB
[8] = Table 1, kidney cell line A498, 48 hours exposure, SRB
[9] = Table 1, prostate cell line DU-145, 48 hours exposure, SRB
[10] = Table 1, breast cell line MCF-7, 48 hours exposure, SRB
[11] = Table 1, breast cell line MB-231, 48 hours exposure, SRB

CSc1nccc(-c2c3cccnc3n3c(N)nccc23)n1 [Compound 5, thiodeoxyvariolin]
GI50 (A-549; [1]): 1000 nM
CC50 (A-549; [2]): 10000 nM
TGI (total growth inhibition, cytostatic effect) (A-549; [3]): 3.E−06 M
GI50 (HT-29; [1]): 600 nM
CC50 (HT-29; [2]): 10000 nM
TGI (total growth inhibition, cytostatic effect) (HT-29; [4]): 2.E−06 M
GI50 (SW-620): 3000 nM
CC50 (SW-620): 30000 nM
TGI (total growth inhibition, cytostatic effect) (SW-620; [5]): 1.E−05 M
GI50 (MEL-28): 60 nM
CC50 (MEL-28): 6000 nM
TGI (total growth inhibition, cytostatic effect) (MEL-28; [6]): 3.E−07 M
GI50 (OVCAR-3; [7]): 1000 nM
CC50 (OVCAR-3; [7]): 3000 nM
TGI (total growth inhibition, cytostatic effect) (OVCAR-3; [7]): 2.E−06 M
GI50 (A498): 600 nM
CC50 (A498): 3000 nM
TGI (total growth inhibition, cytostatic effect) (A498; [8]): 2.E−06 M
GI50 (DU-145): 300 nM
CC50 (DU-145): 3000 nM
TGI (total growth inhibition, cytostatic effect) (DU-145; [9]): 1.E−06 M
GI50 (MCF-7): 2000 nM
CC50 (MCF-7): 30000 nM
TGI (total growth inhibition, cytostatic effect) (MCF-7; [10]): 6.E−06 M
GI50 (MB-231; 48 h): 2000 nM
CC50 (MB-231; 48 h): 10000 nM
TGI (total growth inhibition, cytostatic effect) (MB-231; [11]): 6.E−07 M

Nc1nccc(-c2c3cccnc3n3c(N)nccc23)n1 [Compound 4, deoxyvariolin B]
GI50 (A-549; [1]): 100 nM
CC50 (A-549; [2]): 400 nM
TGI (total growth inhibition, cytostatic effect) (A-549; [3]): 2.E−07 M
GI50 (HT-29; [1]): 70 nM
CC50 (HT-29; [2]): 10000 nM
TGI (total growth inhibition, cytostatic effect) (HT-29; [4]): 2.E−07 M
GI50 (SW-620): 70 nM
CC50 (SW-620): 10000 nM
TGI (total growth inhibition, cytostatic effect) (SW-620; [5]): 3.E−07 M
GI50 (MEL-28): 70 nM
CC50 (MEL-28): 300 nM
TGI (total growth inhibition, cytostatic effect) (MEL-28; [6]): 1.E−07 M
CC50 (OVCAR-3; OVCAR-3, 48 h): 400 nM
GI50 (OVCAR-3; [7]): 100 nM
TGI (total growth inhibition, cytostatic effect) (OVCAR-3; [7]): 3.E−07 M
GI50 (A498): 70 nM
CC50 (A498): 700 nM
TGI (total growth inhibition, cytostatic effect) (A498; [8]): 2.E−07 M
GI50 (DU-145): 100 nM
CC50 (DU-145): 7000 nM
TGI (total growth inhibition, cytostatic effect) (DU-145; [9]): 3.E−07 M
GI50 (MCF-7): 100 nM
CC50 (MCF-7): 4000 nM
TGI (total growth inhibition, cytostatic effect) (MCF-7; [10]): 3.E−07 M
GI50 (MB-231; 48 h): 70 nM
CC50 (MB-231; 48 h): 30000 nM
TGI (total growth inhibition, cytostatic effect) (MB-231; [11]): 3.E−07 M

Nc1nccc(-c2c3c(O)ccnc3n3c(N)nccc23)n1 [Compound 1, Variolin B]
TGI (total growth inhibition, cytostatic effect) (A-549; 48 h): 1.E−06 M
GI50 (A-549; read-out: A-549 GI50): 170 nM
CC50 (A-549; read-out: A-549 LC50): 170000 nM
GI50 (A-549; [1]): 700 nM
CC50 (A-549; [2]): 3000 nM
A-549 TGI (A-549; Table 2, A-549, 48 hours exposure, SRB): 6.8 10^−7 M
TGI (total growth inhibition, cytostatic effect) (HT-29; 48 h): 1.E−06 M
GI50 (HT-29; [1]): 700 nM
GI50 (HT-29; read-out: HT-29 GI50): 1000 nM
CC50 (HT-29; read-out: HT-29 LC50): > 170000 nM
CC50 (HT-29; [2]): 3000 nM
HT-29 TGI (HT-29; Table 2, HT-29, 48 hours exposure, SRB): 1.7 10^−5 M
TGI (total growth inhibition, cytostatic effect) (SW-620; 48 h): 3.E−07 M
GI50 (SW-620): 100 nM
CC50 (SW-620): 2000 nM
TGI (total growth inhibition, cytostatic effect) (MEL-28; 48 h): 1.E−06 M
GI50 (MEL-28): 700 nM
CC50 (MEL-28): 2000 nM
TGI (total growth inhibition, cytostatic effect) (A498; 48 h): 3.E−07 M
GI50 (A498): 100 nM
CC50 (A498): 2000 nM
TGI (total growth inhibition, cytostatic effect) (DU-145; 48 h): 3.E−07 M
GI50 (DU-145): 100 nM
CC50 (DU-145): 1000 nM
TGI (total growth inhibition, cytostatic effect) (MCF-7; 48 h): 2.E−06 M
GI50 (MCF-7): 700 nM
CC50 (MCF-7): 2000 nM
TGI (total growth inhibition, cytostatic effect) (MB-231; 48 h): 1.E−06 M
GI50 (MB-231; 48 h): 300 nM
CC50 (MB-231; 48 h): 3000 nM

Nc1nccc2c(-c3ccnc(N4CCCCC4)n3)c3cccnc3n12 [Compound 28a, piperidinyldeoxyvariolin]
GI50 (A-549; read-out: A-549 GI50): 8700 nM
CC50 (A-549; read-out: A-549 LC50): > 29000 nM
GI50 (HT-29; read-out: HT-29 GI50): 5800 nM
CC50 (HT-29; read-out: HT-29 LC50): > 29000 nM
